Test [1] concerns obestatin receptors, crude plasma membrane preparation of rat jejunum. Kind of test: I^125-obestatin binding to crude plasma membrane preparation of rat jejunum. As to conditions: for inhibition of I^125-obestatin binding: jejunum preparation; for competition of I^125-obestatin binding: rat jejunum preparation. How it is done: Mixture of the peptide (20 μg) and 1 mCi [^125I] NaI was transferred to precoated Iodogen vials and incubated for 4 min. The ^125I-labeled peptide was applied to a Sep-Pak C18 cartridge (Waters, Milford, Mass.) before elution with 60% acetonitrile/0.1% TFA. For radioligand binding assays, rat jejunum or other tissues were washed with buffer A (20 mM Hepes, 5 mM EDTA, 1 mM dithiothreitol (DTT), 10 μM amidinophenylmethanesulfonyl fluoride, 5 mg/L leupeptin, 100 mM KCl, pH 7.5), cut into small pieces and homogenized using a Physcotron motorized homogenizer. The homogenates were centrifuged at 1,000 g for 5 min. and the supernatant was centrifuged at 300,000 g for 1 h at 2° C. The pellets (crude membrane fractions) were resuspended with buffer A without KCl, quickly frozen under liquid nitrogen, and stored at −80° C. until use. […] After incubation, the tubes were centrifuged for 10 min. at 10,000 g, and the pellet was washed twice in ice-cold PBS before counting using a γ-spectrophotometer. Specific binding was calculated by subtracting nonspecific binding from total binding.

For test [2], the target named is T1, GPR39 (Homo sapiens, UniProt O43194).
T1 construct: expressed in transfected cells; host or cells: CHO cells
T1 sequence (O43194 1-453): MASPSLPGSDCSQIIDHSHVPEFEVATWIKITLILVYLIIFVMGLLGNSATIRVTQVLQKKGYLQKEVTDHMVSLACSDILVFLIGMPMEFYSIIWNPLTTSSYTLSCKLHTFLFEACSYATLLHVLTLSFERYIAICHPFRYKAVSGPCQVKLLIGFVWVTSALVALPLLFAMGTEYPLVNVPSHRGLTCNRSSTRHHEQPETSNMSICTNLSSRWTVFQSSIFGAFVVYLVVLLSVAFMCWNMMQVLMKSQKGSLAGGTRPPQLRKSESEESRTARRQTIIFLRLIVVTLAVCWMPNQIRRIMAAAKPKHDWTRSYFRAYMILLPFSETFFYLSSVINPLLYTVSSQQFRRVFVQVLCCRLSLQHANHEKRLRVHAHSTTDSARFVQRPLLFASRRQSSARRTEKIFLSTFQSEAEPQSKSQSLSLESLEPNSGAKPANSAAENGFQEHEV
The test is described as follows: cAMP production in CHO cells overexpressing GPR39. It counts as cell-based. For orientation: Cyclic AMP is a second messenger, typically raised through Gs and lowered through Gi signalling.

For test [3], the target named is T1, GPR39. The test is described as follows: I^125-obestatin binding to CHO cells overexpressing GPR39.
Test [4] can be described thus: Food intake in food-deprived mice after intraperitoneal peptide treatment. It counts as in vivo. As to conditions: adult male mice, deprived of food 16 h, measured at 1, 3 and 5 h. How it is done:
(§1) Analysis of gastrointestinal functions. Eight-week-old C57BL6 male mice were housed individually in a regulated environment. Before intraperitoneal treatment with different peptides, mice were deprived of food for 16 h with free access to water. Food intake was measured by placing preweighed pellets in the cage and weighing uneaten pellets at 1, 3 and 5 h after treatment. To estimate gastric emptying responses, mice deprived of food for 16 h were given food pellets for 90 min. before injection of different hormones or saline. After treatment, mice were deprived of food again and killed 2 h later. The stomach was excised at the pylorus and cardia before weighing. Gastric emptying was calculated by subtracting the stomach weight of treated mice from those killed at the time of the hormone injection.

A further test in a line: Gastric emptying in mice. Type of test: in vivo. The settings on record: adult male mice, intraperitoneal, killed 2 h after treatment. How it is done:
as §1

A short description of test [5]: Body weight gain in adult male rats. The settings on record: for body weight: 1 μmol/kg body weight, thrice daily. It counts as in vivo.
The test system of test [6] is cultured rat pituitary cells. The test is described as follows: GH secretion from cultured rat pituitary cells.
Protocol: Pituitary cell cultures. Anterior pituitaries were removed from adult male Sprague-Dawley rats and dispersed with 0.3% collagenase, 0.1% hyaluronidase and DNase I (10 μg/ml). The cell suspension was centrifuged at 300 g for 5 min. and the cells were washed twice before incubated in DMEM containing 0.1% bovine serum albumin (BSA), penicillin (100 units/ml), streptomycin (100 μg/ml), fungizone (2.5 μg/ml) and 10% fetal calf serum. Cells were seeded onto poly-lysine-coated 24-well plates at a density of 2˜3×10^5 cells/well. Cultures were kept in a humidified atmosphere of 5% CO2 and 95% air at 37° C. […] Media was removed and rat GH was measured by an ELISA.
Another test deals with jejunum muscle strips. The test is described as follows: Isometric force measurement of jejunum muscle strips. How it is done:
Isometric force measurements. Jejunum muscle strips (˜1 cm in length) were cut along the longitudinal axis of the circular muscle layer, and the mucosa was removed to minimize endogenous peptides. Muscle strips were mounted to a TIS8105R (Kent Scientific Corporation, Torrington, Conn.) isometric strain gauge and immersed in a 5 ml organ bath maintained at 37° C. with oxygenated KRB [Krebs-Ringer phosphate buffer, consisting of 50 mM HEPES, 100 mM NaCl, 5 mM KCl, and 1 mM each of MgCl2, NaH2PO4, and CaCl2] as described earlier (Porcher et al. (2005) Am J Physiol Gastrointest Liver Physiol 288(5): G1091-103.). A resting force of 1.0 g was applied to intestinal muscles and a 1.5 h equilibration period was allowed before testing of different peptides during a 5 min. period by incubating muscles with peptides at desired concentrations. After each test, muscle strips were washed with fresh KRB for 20 min. to allow full recovery of basal contractile activities. Maximal contraction was evaluated at the beginning and end of each experiment following treatment with 10 μM of acetylcholine chloride. Contractility data were digitized and stored in a computer using the Acknowledge software (MP 100, Biopac Systems, Inc., Goleta, Calif.). Magnitude of contractile strength is expressed as % of maximal contraction induced by acetylcholine.

For test [7], the target named is T1, GPR39. Kind of test: SRE promoter-luciferase reporter in cells cotransfected with GPR39. It counts as cell-based. The settings on record: cotransfection of GPR39 and SRE promoter-luciferase construct.
The next test concerns the target T2, GHSR (Homo sapiens, UniProt Q92847).
T2 construct: expressed in transfected cells; host or cells: CHO cells
Kind of test: cAMP production in CHO cells expressing GHSR, with or without chimeric Gsq protein. Type of test: cell-based. As to conditions: without Gsq.

The target in the next test is T3, V50-GPR39 (Homo sapiens, UniProt O43194, A50V).
T3 sequence (O43194 1-453 A50V): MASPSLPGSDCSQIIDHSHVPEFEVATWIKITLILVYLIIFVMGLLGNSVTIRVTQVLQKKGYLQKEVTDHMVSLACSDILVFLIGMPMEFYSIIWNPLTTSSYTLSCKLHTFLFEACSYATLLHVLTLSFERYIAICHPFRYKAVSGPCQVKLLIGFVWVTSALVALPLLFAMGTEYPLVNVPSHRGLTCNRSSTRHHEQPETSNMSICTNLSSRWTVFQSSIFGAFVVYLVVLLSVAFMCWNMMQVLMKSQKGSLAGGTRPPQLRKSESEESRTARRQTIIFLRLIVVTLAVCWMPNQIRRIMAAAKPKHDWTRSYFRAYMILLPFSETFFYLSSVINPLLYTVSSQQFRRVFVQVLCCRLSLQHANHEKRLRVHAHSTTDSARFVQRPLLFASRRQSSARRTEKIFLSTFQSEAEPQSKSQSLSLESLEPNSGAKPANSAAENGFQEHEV
As to conditions: ratio of affinities to obestatin.

For test [8], the target named is T4, GPR39 (wild type A50-GPR39) (human, UniProt O43194 1-453).
T4 construct: also called obestatin receptor; orphan receptor GPR39
T4 sequence: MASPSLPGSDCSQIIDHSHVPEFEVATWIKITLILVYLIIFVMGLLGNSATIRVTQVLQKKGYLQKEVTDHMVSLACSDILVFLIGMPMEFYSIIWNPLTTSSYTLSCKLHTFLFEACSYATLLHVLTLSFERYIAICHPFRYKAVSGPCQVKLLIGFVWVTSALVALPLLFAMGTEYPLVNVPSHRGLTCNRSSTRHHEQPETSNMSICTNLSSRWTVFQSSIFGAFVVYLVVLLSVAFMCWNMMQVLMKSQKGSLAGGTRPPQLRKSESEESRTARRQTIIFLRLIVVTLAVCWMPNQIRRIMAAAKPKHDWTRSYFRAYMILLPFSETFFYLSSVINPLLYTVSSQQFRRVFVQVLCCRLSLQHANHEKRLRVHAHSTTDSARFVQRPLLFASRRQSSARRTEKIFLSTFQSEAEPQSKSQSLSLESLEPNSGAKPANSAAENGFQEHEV
Kind of test: displacement of I^125-obestatin from GPR39.

Where two headings read alike, the source gives them in different places. No end group written: not given here.

The source of these data is patent US20070042409A1 (priority 2005, published 2007).

T2 sequence (Q92847 whole entry, species assumed): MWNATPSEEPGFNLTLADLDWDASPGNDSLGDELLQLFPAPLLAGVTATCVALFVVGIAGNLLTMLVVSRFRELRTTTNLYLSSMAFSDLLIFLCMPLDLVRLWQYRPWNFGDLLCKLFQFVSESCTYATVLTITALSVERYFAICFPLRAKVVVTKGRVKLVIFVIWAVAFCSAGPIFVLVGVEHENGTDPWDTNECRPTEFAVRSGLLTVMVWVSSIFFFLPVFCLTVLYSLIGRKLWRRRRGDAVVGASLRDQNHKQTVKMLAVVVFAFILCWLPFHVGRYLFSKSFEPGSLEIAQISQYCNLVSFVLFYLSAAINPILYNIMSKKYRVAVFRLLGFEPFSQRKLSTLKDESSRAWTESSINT

With `Nc1nc2c(ncn2[C@@H]2O[C@H](COP(=O)(O)OP(=O)(O)OP(O)(O)=S)[C@@H](O)[C@H]2O)c(=O)[nH]1` [GTPγS], the “inhibition of I^125-obestatin binding” value stood at 5% in [1] (GTPγS 1 uM), 20% in test [1] (GTPγS 10 uM) and 45% in test [1] (GTPγS 100 uM).

For the molecule `CC[C@H](C)[C@H](NC(=O)[C@@H]1CCCN1C(=O)[C@@H](NC(=O)[C@@H](N)Cc1ccccc1)C(C)C)C(=O)N[C@@H](Cc1ccccc1)C(=O)N[C@H](C(=O)N[C@@H](Cc1ccc(O)cc1)C(=O)NCC(=O)N[C@@H](CCC(=O)O)C(=O)N[C@@H](CC(C)C)C(=O)N[C@@H](CCC(N)=O)C(=O)N[C@@H](CCCNC(=N)N)C(=O)N[C@@H](CCSC)C(=O)N[C@@H](CCC(N)=O)C(=O)N[C@@H](CCC(=O)O)C(=O)N[C@@H](CCCCN)C(=O)N[C@@H](CCC(=O)O)C(=O)N[C@@H](CCCNC(=N)N)C(=O)N[C@@H](CC(N)=O)C(=O)N[C@@H](CCCCN)C(=O)NCC(=O)N[C@@H](CCC(N)=O)C(=O)O)[C@@H](C)O` [motilin], the “competition of I^125-obestatin binding” value in [1] was “not competed”. Also, the cAMP production entry on GPR39 [2] is given as “ineffective”.

On to “(des1-10)obestatin: truncated obestatin lacking residues 1-10 (LSGVQYQQHSQAL)”, for which, in test [1], the “competition of I^125-obestatin binding” value is reported as “less effective than obestatin”. In the test with GPR39 [3], the “competition of obestatin binding to GPR39” value is given as “less effective”.

In the case of “NA-obestatin: non-amidated obestatin, synthesized by GL Biochem”, the “competition of I^125-obestatin binding” value in test [1] is “less effective than obestatin”. Also, the food intake result in [4] is “minimally effective”. In addition, in “Gastric emptying in mice”, the gastric emptying activity result was “less effective”.

Regarding “ghrelin: n-octanoylated 28 amino acid peptide, endogenous GHSR ligand; purchased from Phoenix Pharmaceuticals (GSSFLSPEHQRVQQRKESKKPPAKLQPR; not fully specified (residue 3); UniProt Q9UBU3 24-51, looked up) [reference compound]”, the body weight entry in test [5] was “increased body weight”. For the same molecule, in [1], the “competition of I^125-obestatin binding” value is “not competed”. For the same molecule, the food intake result in test [4] was “minimally effective”. In addition, the cAMP production result with GPR39 [2] was “ineffective”. Moreover, in test [6], the GH secretion was 2.32+/−0.08 ng/culture. Further, the gastric emptying activity entry in “Gastric emptying in mice” is recorded as “ineffective”.

Regarding “neuromedin U: peptide purchased from Phoenix Pharmaceuticals (FRVDEEFQSPFASQSRGYFLFRPRN; ends and bridges not checked; UniProt P48645 142-166, looked up)”, the “competition of I^125-obestatin binding” value in test [1] was “not competed”.

A word on the Kd: it is a measure of binding affinity in units of concentration. A lower Kd goes with a tighter complex. For the molecule “synthesized amidated human obestatin, 23 residue peptide derived from proghrelin; FNAPFDVGIKLSGVQYQQHSQAL-NH2 (SEQ ID NO:4); also used iodinated as radioligand”, the “contractile activity of jejunum muscle strips in presence of ghrelin” value in the test on jejunum muscle strips (effect on stimulatory effect of ghrelin) is listed as “antagonized the known stimulatory effect of ghrelin”. In addition, in the test with jejunum muscle strips (isometric force measurement), the “contractile activity of jejunum muscle strips” value is given as “decreased contractile activity”. Further, the body weight entry in test [5] is reported as “suppressed body weight gain”. For the same molecule, in [5] (cotreatment of obestatin with ghrelin), the “body weight, cotreatment with ghrelin” value was “antagonized the orexigenic action of ghrelin”. In addition, the SRE promoter-luciferase signaling entry at GPR39 [7] is given as “conferred obestatin”. In test [1] (labeled obestatin, rat jejunum crude plasma membrane), this molecule came in with a dissociation constant Kd of 4 nM. For the same molecule, the food intake result in [4] is “suppressed food intake for five hours in a dose-dependent manner”. Further, the cAMP production result on GPR39 [2] is on record as “dose-dependent increases in cAMP production”. In [6] (100 nM, cultured rat pituitary cells, 1 h, control 1.04+/−0.03), the GH secretion is listed as 1.04+/−0.03 ng/culture. At GPR39 [3], the “competition of obestatin binding to GPR39” value is reported as “competed”. Further, the gastric emptying activity entry in “Gastric emptying in mice” is recorded as “sustained suppression of gastric emptying activity”. Moreover, on GHSR, the cAMP response entry is “did not respond”. In addition, on V50-GPR39, the “affinity of V50-GPR39 relative to wild type A50-GPR39” value was “two-fold higher affinity”.

Regarding “urocortin: peptide injected in mice as positive control for food intake suppression (DNPSLSIDLTFHLLRTLLELARTQSQRERAEQNRIIFDSV; ends and bridges not checked; UniProt P55089 83-122, looked up) [reference compound]”, the food intake result in test [4] is “suppressed food intake”.

B1: (des1-10)obestatin (peptide)
peptide: LSGVQYQQHSQAL
modifications: ends and bridges not checked
notes: Synthetic obestatin lacking residues 1-10; The range 11-23 is derived from the name; also called truncated (des1-10)obestatin
Take B1: the binding result in test [8] was “binds”.
